Format in all cases: biochemical
In one assay the target is c-Abl (Homo sapiens, UniProt P00519). Kind of assay: Inhibitory activity against c-Abl (Example 207). Particulars: Examples 171 to 206.
The target of a further assay is T1, KDR (Homo sapiens, UniProt P35968).
T1 construct: expressed in transfected cells; host or cells: CHO cells
Kind of assay: Inhibitory activity against KDR (VEGF-R2), in vitro data of Examples 170 and 207. The conditions noted are these: 10 μM; Examples 171 to 206; read-out: KDR inhibition at 10 μM. The gist of the method: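 KDR tyrosine phosphorylation detected by luminescence after overnight 4° C capture of 20 μg lysate protein with PY20:AP antibody. Lysates came from cells given compound for 2 h at 37° C, then final 20 ng/ml VEGF for 5 min; compound-free medium as control.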

The next assay addresses T2, FGFR3 (K650E) (Homo sapiens, UniProt P22607, K650E).
T2 construct: amino acids 411-806 of the cytoplasmic domain of human FGFR-3, N-terminally fused to GST; made in house; host or cells: Sf9 insect cells (baculovirus)
Kind of assay: Recombinant GST-FGFR-3-K650E tyrosine kinase assay (33P into poly(Glu,Tyr)). The conditions noted are these: 10 μM; Examples 171 to 206; read-out: FGFR3 inhibition at 10 μM.

T1 sequence (P35968 20-1356): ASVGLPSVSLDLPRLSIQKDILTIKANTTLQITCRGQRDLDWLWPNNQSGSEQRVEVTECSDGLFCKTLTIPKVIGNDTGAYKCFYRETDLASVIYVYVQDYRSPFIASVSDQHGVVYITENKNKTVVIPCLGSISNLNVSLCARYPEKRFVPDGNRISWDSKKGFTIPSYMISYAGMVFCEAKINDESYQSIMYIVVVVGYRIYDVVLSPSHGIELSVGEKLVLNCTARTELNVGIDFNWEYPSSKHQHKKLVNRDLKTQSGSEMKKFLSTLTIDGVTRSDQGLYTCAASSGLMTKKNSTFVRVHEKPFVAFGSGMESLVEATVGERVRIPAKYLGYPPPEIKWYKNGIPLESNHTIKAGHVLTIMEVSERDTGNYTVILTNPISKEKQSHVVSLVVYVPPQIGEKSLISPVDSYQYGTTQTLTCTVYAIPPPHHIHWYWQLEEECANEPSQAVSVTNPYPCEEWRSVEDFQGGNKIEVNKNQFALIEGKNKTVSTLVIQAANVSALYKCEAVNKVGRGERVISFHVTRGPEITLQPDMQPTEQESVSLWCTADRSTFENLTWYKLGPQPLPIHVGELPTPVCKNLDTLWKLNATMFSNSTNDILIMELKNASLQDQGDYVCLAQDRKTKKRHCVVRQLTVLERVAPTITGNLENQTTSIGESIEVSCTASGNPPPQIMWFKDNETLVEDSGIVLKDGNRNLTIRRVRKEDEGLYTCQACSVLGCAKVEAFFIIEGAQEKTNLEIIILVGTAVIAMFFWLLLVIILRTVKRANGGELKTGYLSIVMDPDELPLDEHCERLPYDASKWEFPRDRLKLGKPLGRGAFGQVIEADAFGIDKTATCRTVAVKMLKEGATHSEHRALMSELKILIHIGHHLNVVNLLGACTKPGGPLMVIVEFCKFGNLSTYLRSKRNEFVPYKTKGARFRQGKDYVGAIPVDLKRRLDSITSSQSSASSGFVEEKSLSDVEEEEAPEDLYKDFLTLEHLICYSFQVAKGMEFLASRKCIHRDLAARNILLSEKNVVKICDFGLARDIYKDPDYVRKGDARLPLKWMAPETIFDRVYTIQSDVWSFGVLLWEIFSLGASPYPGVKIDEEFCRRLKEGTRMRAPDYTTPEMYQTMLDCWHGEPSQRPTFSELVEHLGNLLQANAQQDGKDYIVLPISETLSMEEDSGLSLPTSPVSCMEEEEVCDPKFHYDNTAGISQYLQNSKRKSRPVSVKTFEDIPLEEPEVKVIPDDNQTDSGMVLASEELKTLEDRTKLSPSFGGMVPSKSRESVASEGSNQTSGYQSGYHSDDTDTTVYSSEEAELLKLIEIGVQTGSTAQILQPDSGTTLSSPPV
T2 sequence (P22607 411-806 K650E): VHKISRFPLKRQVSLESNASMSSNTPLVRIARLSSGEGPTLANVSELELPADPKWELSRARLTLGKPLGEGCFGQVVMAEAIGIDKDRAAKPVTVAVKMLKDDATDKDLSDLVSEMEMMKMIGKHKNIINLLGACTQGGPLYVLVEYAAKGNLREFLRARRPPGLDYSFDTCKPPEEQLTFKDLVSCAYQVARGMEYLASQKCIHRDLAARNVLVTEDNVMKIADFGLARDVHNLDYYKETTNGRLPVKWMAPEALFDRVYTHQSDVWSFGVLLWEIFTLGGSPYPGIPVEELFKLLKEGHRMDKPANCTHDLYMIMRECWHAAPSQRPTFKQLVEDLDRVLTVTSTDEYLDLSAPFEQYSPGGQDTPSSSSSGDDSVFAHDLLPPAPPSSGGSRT
Chain of c-Abl (P00519 whole entry): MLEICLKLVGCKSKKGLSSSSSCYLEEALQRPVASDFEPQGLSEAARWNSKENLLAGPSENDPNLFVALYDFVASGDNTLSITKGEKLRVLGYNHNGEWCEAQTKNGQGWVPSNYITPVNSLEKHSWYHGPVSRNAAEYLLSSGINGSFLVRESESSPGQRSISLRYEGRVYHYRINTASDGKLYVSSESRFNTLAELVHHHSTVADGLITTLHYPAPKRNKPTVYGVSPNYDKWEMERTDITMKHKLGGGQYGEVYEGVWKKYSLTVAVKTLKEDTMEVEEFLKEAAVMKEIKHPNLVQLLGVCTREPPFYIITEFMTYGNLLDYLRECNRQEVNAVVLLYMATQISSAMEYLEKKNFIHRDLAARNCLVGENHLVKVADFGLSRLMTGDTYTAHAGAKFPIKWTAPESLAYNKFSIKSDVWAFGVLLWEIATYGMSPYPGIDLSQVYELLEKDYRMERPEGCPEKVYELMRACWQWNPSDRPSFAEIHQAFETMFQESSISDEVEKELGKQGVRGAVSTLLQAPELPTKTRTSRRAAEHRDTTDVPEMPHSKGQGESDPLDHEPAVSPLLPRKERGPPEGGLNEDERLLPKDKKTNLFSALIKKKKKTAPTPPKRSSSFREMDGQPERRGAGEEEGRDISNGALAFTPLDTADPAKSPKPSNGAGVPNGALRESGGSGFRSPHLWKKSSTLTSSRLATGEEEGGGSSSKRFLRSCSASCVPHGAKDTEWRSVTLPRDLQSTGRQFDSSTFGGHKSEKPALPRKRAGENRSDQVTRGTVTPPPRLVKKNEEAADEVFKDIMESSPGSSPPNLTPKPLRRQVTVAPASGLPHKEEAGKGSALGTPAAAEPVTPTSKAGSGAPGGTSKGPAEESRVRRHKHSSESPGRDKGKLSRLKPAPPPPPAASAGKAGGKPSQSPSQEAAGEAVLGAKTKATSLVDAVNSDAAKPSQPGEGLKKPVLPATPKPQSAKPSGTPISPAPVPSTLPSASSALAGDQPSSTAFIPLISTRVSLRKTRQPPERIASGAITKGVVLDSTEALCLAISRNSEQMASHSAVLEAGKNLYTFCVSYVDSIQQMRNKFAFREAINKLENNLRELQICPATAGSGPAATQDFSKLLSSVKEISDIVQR

On to `CCN(CC)CCOc1ccc(Nc2cc(NC(=O)Nc3cc(NC(=O)c4cccc(C(F)(F)F)c4)ccc3C)ncn2)cc1` [Example 176, N-[3-(3-{6-[4-(2-Diethylamino-ethoxy)-phenylamino]-pyrimidin-4-yl}-ureido)-4-methyl-phenyl]-3-trifluoromethyl-benzamide], for which the inhibition at 10 µM fell in the range of 79 to 100% on c-Abl, 87 to 100% at KDR and 56 to 98% at FGFR3 (K650E).
With `Cc1ccc(NC(=O)c2cccc(C(F)(F)F)c2)cc1NC(=O)Nc1cc(Nc2ccc(OCCCN(C)C)cc2)ncn1` [Example 177, N-[3-(3-{6-[4-(3-Dimethylamino-propoxy)-phenylamino]-pyrimidin-4-yl}-ureido)-4-methyl-phenyl]-3-trifluoromethyl-benzamide], the inhibition at 10 µM against c-Abl lay within 79 to 100%; at KDR it was 87 to 100%; on FGFR3 (K650E), 56 to 98%.
Turning to `Cc1ccc(NC(=O)c2cccc(C(F)(F)F)c2)cc1NC(=O)Nc1cc(Nc2cccc(OCCN(C)C)c2)ncn1` [Example 178, N-[3-(3-{6-[3-(2-Dimethylamino-ethoxy)-phenylamino]-pyrimidin-4-yl}-ureido)-4-methyl-phenyl]-3-trifluoromethyl-benzamide], the inhibition at 10 µM was 79 to 100% against c-Abl, 87 to 100% at KDR and 56 to 98% on FGFR3 (K650E).
For the compound `Cc1ccc(NC(=O)c2cccc(C(F)(F)F)c2)cc1NC(=O)Nc1cc(Nc2ccc(OCCN3CCOCC3)cc2)ncn1` [Example 179, N-[4-Methyl-3-(3-{6-[4-(2-morpholin-4-yl-ethoxy)-phenylamino]-pyrimidin-4-yl}-ureido)-phenyl]-3-trifluoromethyl-benzamide], the inhibition at 10 µM on c-Abl is 79 to 100%; on KDR, 87 to 100%; at FGFR3 (K650E) it was 56 to 98%.
Take `Cc1ccc(NC(=O)c2cccc(C(F)(F)F)c2)cc1NC(=O)Nc1cc(Nc2cccc(OCCN3CCOCC3)c2)ncn1` [Example 180, N-[4-Methyl-3-(3-{6-[3-(2-morpholin-4-yl-ethoxy)-phenylamino]-pyrimidin-4-yl}-ureido)-phenyl]-3-trifluoromethyl-benzamide]: the inhibition at 10 µM was in the range of 79 to 100% against c-Abl, 87 to 100% at KDR and 56 to 98% on FGFR3 (K650E).
In the case of `Cc1ccc(NC(=O)c2cccc(C(F)(F)F)c2)cc1NC(=O)N(C)c1cc(Nc2ccccc2)ncn1` [Example 181, N-{4-Methyl-3-[3-methyl-3-(6-phenylamino-pyrimidin-4-yl)-ureido]-phenyl}-3-trifluoromethyl-benzamide], the values for the inhibition at 10 µM against c-Abl, at KDR and on FGFR3 (K650E) were 79 to 100%, 87 to 100% and 56 to 98%, respectively.
For the compound `Cc1ccc(NC(=O)c2cccc(C(F)(F)F)c2)cc1NC(=O)N(C)c1cc(Nc2cccc(OCCN(C)C)c2)ncn1` [Example 182, N-[3-(3-{6-[3-(2-Dimethylamino-ethoxy)-phenylamino]-pyrimidin-4-yl}-3-methyl-ureido)-4-methyl-phenyl]-3-trifluoromethyl-benzamide], the results for the inhibition at 10 µM against c-Abl, on KDR and at FGFR3 (K650E) were 79 to 100%, 87 to 100% and 56 to 98%, respectively.
Turning to `CCN(CC)CCOc1ccc(Nc2cc(N(C)C(=O)Nc3cc(NC(=O)c4cccc(C(F)(F)F)c4)ccc3C)ncn2)cc1` [Example 183, N-[3-(3-{6-[4-(2-Diethylamino-ethoxy)-phenylamino]-pyrimidin-4-yl}-3-methyl-ureido)-4-methyl-Phenyl]-3-trifluoromethyl-benzamide], the inhibition at 10 µM at c-Abl lay in the range of 79 to 100%; on KDR, 87 to 100%; on FGFR3 (K650E) it was 56 to 98%.
For `Cc1ccc(NC(=O)c2cccc(C(F)(F)F)c2)cc1NC(=O)N(C)c1cc(Nc2ccc(OCCN3CCN(C)CC3)cc2)ncn1` [Example 184, N-{4-Methyl-3-[3-methyl-3-(6-{4-[2-(4-methyl-piperazin-1-yl)-ethoxy]-phenylamino}-pyrimidin-4-yl)-ureido]-phenyl}-3-trifluoromethyl-benzamide] the same measures were 79 to 100%, 87 to 100% and 56 to 98%.
As to `Cc1ccc(NC(=O)c2cccc(C(F)(F)F)c2)cc1NC(=O)N(C)c1cc(Nc2cccc(OCCN3CCN(C)CC3)c2)ncn1` [Example 185, N-{4-Methyl-3-[3-methyl-3-(6-{3-[2-(4-methyl-piperazin-1-yl)-ethoxy]-phenylamino}-pyrimidin-4-yl)-ureido]-phenyl}-3-trifluoromethyl-benzamide], the inhibition at 10 µM was 79 to 100% on c-Abl, 87 to 100% on KDR and 56 to 98% at FGFR3 (K650E).
For `Cc1ccc(C(=O)Nc2cccc(C(F)(F)F)c2)cc1NC(=O)N(C)c1cc(Nc2ccc(N3CCN(C)CC3)cc2)ncn1` [Example 186, 4-Methyl-3-(3-methyl-3-{6-[4-(4-methyl-piperazin-1-yl)-phenylamino]-pyrimidin-4-yl}-ureido)-N-(3-trifluoromethyl-phenyl)-benzamide] the same measures were 79 to 100%, 87 to 100% and 56 to 98%.
With `Cc1ccc(NC(=O)c2cccc(C(F)(F)F)c2)cc1NC(=O)N(C)c1cc(Nc2ccc(C(=O)N3CCN(C)CC3)cc2)ncn1` [Example 187, N-[4-Methyl-3-(3-methyl-3-{6-[4-(4-methyl-piperazine-1-carbonyl)-phenylamino]-pyrimidin-4-yl}-ureido)-phenyl]-3-trifluoromethyl-benzamide], the figures for the inhibition at 10 µM on c-Abl, at KDR and at FGFR3 (K650E) were 79 to 100%, 87 to 100% and 56 to 98%, respectively.
With `Cc1ccc(NC(=O)c2cccc(C(F)(F)F)c2)cc1NC(=O)N(C)c1cc(Nc2cccc(N3CCN(C)CC3)c2)ncn1` [Example 188, N-[4-Methyl-3-(3-methyl-3-{6-[3-(4-methyl-piperazin-1-yl)-phenylamino]-pyrimidin-4-yl}-ureido)-phenyl]-3-trifluoromethyl-benzamide], the inhibition at 10 µM at c-Abl is 79 to 100%; at KDR, 87 to 100%; at FGFR3 (K650E), 56 to 98%.
Take `Cc1ccc(NC(=O)c2cccc(C(F)(F)F)c2)cc1NC(=O)N(CCN1CCN(C)CC1)c1cc(Nc2ccccc2)ncn1` [Example 189, N-{4-Methyl-3-[3-[2-(4-methyl-piperazin-1-yl)-ethyl]-3-(6-phenylamino-pyrimidin-4-yl)-ureido]-phenyl}-3-trifluoromethyl-benzamide]: the inhibition at 10 µM against c-Abl lay in the range of 79 to 100%; at KDR it was 87 to 100%; on FGFR3 (K650E) it was 56 to 98%.
Take `Cc1ccc(NC(=O)c2cccc(C(F)(F)F)c2)cc1NC(=O)N(CCc1ccccn1)c1cc(Nc2ccccc2)ncn1` [Example 190, N-{4-Methyl-3-[3-(6-phenylamino-pyrimidin-4-yl)-3-(2-pyridin-2-yl-ethyl)-ureido]-phenyl}-3-trifluoromethyl-benzamide]: the inhibition at 10 µM against c-Abl lay within 79 to 100%; at KDR it was 87 to 100%; at FGFR3 (K650E), 56 to 98%.
For `Cc1ccc(NC(=O)c2cccc(C(F)(F)F)c2)cc1NC(=O)N(CCc1ccccn1)c1cc(Nc2ccc(N3CCN(C)CC3)cc2)ncn1` [Example 191, N-[4-Methyl-3-[3-{6-[4-(4-methyl-piperazin-1-yl)-phenylamino]-pyrimid-in-4-yl]-3-(2-pyridin-2-yl-ethyl)-ureido]-phenyl}-3-trifluoromethyl-benzamide] the same measures were 79 to 100%, 87 to 100% and 56 to 98%.
For `CCN(C(=O)Nc1cc(NC(=O)c2cccc(C(F)(F)F)c2)ccc1C)c1cc(Nc2ccc(N3CCN(C)CC3)cc2)ncn1` [Example 192, N-[3-(3-Ethyl-3-{6-[4-(4-methyl-piperazin-1-yl)-phenylamino]-pyrimidin-4-yl}-ureido)-4-methyl-Phenyl]-3-trifluoromethyl-benzamide] the same measures were 79 to 100%, 87 to 100% and 56 to 98%.
Regarding `Cc1ccc(NC(=O)c2cccc(C(F)(F)F)c2)cc1NC(=O)N(Cc1cccs1)c1cc(Nc2ccc(N3CCN(C)CC3)cc2)ncn1` [Example 193, N-[4-Methyl-3-(3-{6-[4-(4-methyl-piperazin-1-yl)-phenylamino]-pyrimid-in-4-yl}-3-thiophen-2-ylmethyl-ureido)-phenyl]-3-trifluoromethyl-benzamide], the inhibition at 10 µM was 79 to 100% against c-Abl, 87 to 100% at KDR and 56 to 98% at FGFR3 (K650E).
On to `Cc1ccc(NC(=O)c2ccc(CN3CCN(C)CC3)c(C(F)(F)F)c2)cc1NC(=O)N(C)c1cc(Nc2ccccc2)ncn1` [Example 195, N-{4-Methyl-3-[3-methyl-3-(6-phenylamino-pyrimidin-4-yl)-ureido]-phenyl}-4-(4-methyl-piperazin-1-ylmethyl)-3-trifluoromethyl-benzamide], for which the inhibition at 10 µM against c-Abl lay within 79 to 100%; at KDR, 87 to 100%; at FGFR3 (K650E), 56 to 98%.
As to `COc1ccc(N)cc1NC(=O)N(C)c1cc(Nc2ccc(N3CCN(C)CC3)cc2)ncn1` [Example 196, 3-(5-Amino-2-methoxy-phenyl)-1-methyl-1-{6-[4-(4-methyl-piperazin-1-yl)-phenylamino]-pyrimidin-4-yl}-urea], the figures for the inhibition at 10 µM against c-Abl, on KDR and on FGFR3 (K650E) were 79 to 100%, 87 to 100% and 56 to 98%, respectively.
